Consider 8 compounds from publication PMC10977726 (PLOS ONE, 2024).

Like-named read-outs stand apart in the source and are kept apart here. Where a SMILES comes first, the peptide text is derived from it. Bridges are numbered along the chain shown (N, C = ends). A value given as a limit tells only on which side of the number the result lay.

Assay [1] concerns the target T1, human IgG Fc (Homo sapiens, UniProt P01857).
T1 construct: Biotin-SP-ChromPure Human IgG, Fc fragment; purchased Jackson Immunoresearch Labs Inc. 009060008
The assay is described as follows: SPR. The assay is classed as binding.

The target of assay [2] is T1, human IgG Fc. In words: Phage competition ELISA (synthetic DCP vs its own phage). The class given is binding. The settings on record: Table S12; synthetic DCP competing with its own phage for biotinylated human IgG Fc on neutravidin plate; absorbance 450 nm; averaged from at least three independent runs.
The target in another assay is Ly6E-rat IgG Fc (UniProt P20761+Q16553). In words: SPR. Also noted: species or system human. The note with it: Table S17, first KD value, at least three independent runs, estimated values due to possible non-specific binding, read-out: KD against rat Fc-Ly6E. The method, then: (§1) SPR measurements were carried out on a Biacore S200 instrument (GE Healthcare) with PBS-T (PBS with 0.05% Tween 20, pH 7.4) as the assay buffer as described previously. For kinetic measurements, biotinylated protein was captured on three separate sensor channels of a Series S SA Sensor chip (GE Healthcare). The chip was then blocked with 0.1 mg/mL free biotin. A concentration series of the DCP were injected to the chip. Data were double-referenced by subtracting the signal from a control sensor channel (coated with biotin only) and the signal from a buffer injection. Binding data were fitted using the manufacturer’s software (1:1 or two state binding model for single-cycle kinetics or steady-state model for multi-cycle kinetics).
Sequence of Ly6E-rat IgG Fc (Q16553+P20761 fused): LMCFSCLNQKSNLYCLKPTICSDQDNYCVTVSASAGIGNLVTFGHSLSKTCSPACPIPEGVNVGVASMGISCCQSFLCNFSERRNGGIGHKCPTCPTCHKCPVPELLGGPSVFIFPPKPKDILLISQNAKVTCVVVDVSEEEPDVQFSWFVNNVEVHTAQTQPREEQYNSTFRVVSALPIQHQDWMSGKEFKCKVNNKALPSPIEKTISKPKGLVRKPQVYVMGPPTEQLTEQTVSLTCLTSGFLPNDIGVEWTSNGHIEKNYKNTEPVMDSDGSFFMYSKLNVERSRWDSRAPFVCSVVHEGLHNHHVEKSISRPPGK

A further assay addresses T2, PDGF bb (Homo sapiens, UniProt P01127).
T2 construct: purchased R&D Systems BT220-010/CF
The assay is described as follows: SPR. The note with it: Table S16; SPR against PDGF bb; averaged from at least three independent runs; estimated KD values due to possible non-specific binding. The method, then: as §1

In the next assay the target is T3, human serum albumin (Homo sapiens, UniProt P02768).
T3 construct: purchased Rockland Immunochemicals, Inc. 009–0633
T3 sequence (P02768 25-609): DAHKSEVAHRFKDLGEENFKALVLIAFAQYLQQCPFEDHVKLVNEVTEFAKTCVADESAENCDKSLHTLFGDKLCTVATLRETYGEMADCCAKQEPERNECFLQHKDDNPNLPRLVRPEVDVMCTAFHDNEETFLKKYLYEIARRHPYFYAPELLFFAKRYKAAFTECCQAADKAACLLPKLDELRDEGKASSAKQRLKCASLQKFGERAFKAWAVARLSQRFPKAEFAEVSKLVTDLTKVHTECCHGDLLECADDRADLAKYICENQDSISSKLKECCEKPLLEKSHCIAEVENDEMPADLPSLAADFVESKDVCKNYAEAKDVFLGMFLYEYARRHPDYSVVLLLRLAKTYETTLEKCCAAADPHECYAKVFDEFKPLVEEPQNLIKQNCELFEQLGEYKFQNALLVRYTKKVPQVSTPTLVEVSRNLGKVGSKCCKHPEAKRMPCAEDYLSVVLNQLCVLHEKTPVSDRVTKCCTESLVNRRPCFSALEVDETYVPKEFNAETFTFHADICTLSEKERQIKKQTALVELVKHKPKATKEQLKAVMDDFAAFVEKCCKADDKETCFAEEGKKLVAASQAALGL
In words: Phage competition ELISA with phage displaying Hs-CHR-3. The class given is binding. The note with it: Fig 4H. The method, then: To analyze the competitive binding to the target protein for the synthetic DCP and its phage counterpart displaying the same DCP, 384-well plates were coated with 2 μg/mL of neutravidin in PBS overnight at 4°C. The plates were blocked with PBS containing 0.5% BSA and incubated with biotinylated human IgG Fc or serum albumin for 20 min at room temperature. Serial diluted synthetic DCP was pre-incubated with phage for 30 min at room temperature then the mixture was added to the 384 well plates for 30 min at room temperature. The plates were washed and incubate with anti-M13 antibody (1:10,000, HRP conjugated, Creative Diagnostics, cat# CAB-655M) for 30 min at room temperature, followed by washing, development and quenching (1 M H3PO4). The absorbance at 450 nm was recorded to calculate the IC50 values.
To further map the binding epitopes of the Ig-DCPs on human IgG Fc, we developed a protein A-human IgG Fc competition ELISA. […] The findings imply Hs-CHR-1 and -3 bind to a similar epitope on human serum albumin, which partially overlap with the SA21 binding site (Fig 4I).
(In an ELISA, binding on a coated surface is turned into a signal by an enzyme label.)

Another assay deals with T4, human VEGF-A (Homo sapiens, UniProt P15692).
T4 construct: biotin-VEGF-A (8–109, Genentech)
T4 sequence (P15692 214-315): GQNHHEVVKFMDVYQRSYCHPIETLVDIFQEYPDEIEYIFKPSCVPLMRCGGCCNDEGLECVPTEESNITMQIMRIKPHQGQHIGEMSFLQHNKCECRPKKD
In words: SPR. The class given is binding.

T2 sequence (P01127 82-190 limits assumed): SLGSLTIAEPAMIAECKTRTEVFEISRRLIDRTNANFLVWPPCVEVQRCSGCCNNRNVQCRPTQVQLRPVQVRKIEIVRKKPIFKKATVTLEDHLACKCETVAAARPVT

For `CC[C@H](C)[C@@H]1NC(=O)[C@H](C)NC(=O)[C@H](CO)NC(=O)[C@@H]2CSSC[C@@H]3NC(=O)[C@H](Cc4ccc(O)cc4)NC(=O)CNC(=O)[C@H](Cc4ccccc4)NC(=O)[C@H](CCC(N)=O)NC(=O)[C@H](CO)NC(=O)[C@H](CSSC[C@H](NC(=O)[C@H](CCC(=O)O)NC(=O)CNC(=O)[C@@H](N)C(C)C)C(=O)N[C@@H](C(C)C)C(=O)N[C@@H](CCCNC(=N)N)C(=O)NCC(=O)N[C@@H](CCCNC(=N)N)C(=O)N2)NC(=O)[C@H](CSSC[C@@H](C(=O)NCC(=O)O)NC(=O)[C@H](Cc2ccc(O)cc2)NC(=O)[C@H](CCCCN)NC(=O)[C@@H]2CCCN2C(=O)CNC(=O)[C@H](CCCCN)NC(=O)CNC3=O)NC(=O)[C@H](CO)NC1=O` [Ig-AMP-2] (H-VGECVRGRCSAISCCSQFGYCGKGPKYCG-OH; disulfide 4-15, 9-21, 14-28), at human IgG Fc [1] (Table S12, SPR Biacore S200, PBS-T pH 7.4, biotinylated protein on SA chip, averaged from at least three independent runs, N.A. = no detectable binding, * estimated value due to possible non-specific binding), the KD entry was “aggregation”.

As to `CSCC[C@@H]1NC(=O)[C@H](Cc2ccc(O)cc2)NC(=O)[C@H](Cc2c[nH]c3ccccc23)NC(=O)[C@H](Cc2ccc(O)cc2)NC(=O)CNC(=O)[C@@H](NC(=O)CN)CSSC[C@@H]2NC(=O)CNC(=O)[C@H](C)NC(=O)[C@H](CC(C)C)NC(=O)[C@@H]3CSSC[C@@H](C(=O)NCC(=O)O)NC(=O)[C@H](CCC(=O)O)NC(=O)[C@@H]4CCCN4C(=O)[C@H](CCCCN)NC(=O)[C@@H]4CCCN4C(=O)[C@H](CCCNC(=N)N)NC(=O)[C@H](CSSC[C@H](NC(=O)[C@H](Cc4ccccc4)NC(=O)[C@H](Cc4c[nH]c5ccccc45)NC(=O)[C@H](CCC(N)=O)NC1=O)C(=O)N[C@@H](CCCCN)C(=O)N[C@@H](CCC(N)=O)C(=O)N[C@@H](CC(=O)O)C(=O)N[C@@H](CO)C(=O)N[C@@H](CC(=O)O)C(=O)N3)NC(=O)[C@H](C(C)C)NC2=O` [Ig-EET-4], at human IgG Fc [2], the IC50 (usually the concentration that inhibits the measured activity by half) was 823 nM. Also, the Kd (as a rule, the free concentration of one partner at which half of the binding sites on the other are occupied at equilibrium, for simple one-to-one binding) at human IgG Fc [1] (Table S12, SPR Biacore S200, PBS-T pH 7.4, biotinylated protein on SA chip, averaged from at least three independent runs, N.A. = no detectable binding, * estimated value due to possible non-specific binding, read-out: KD) is 948 nM.

For the compound `CC[C@H](C)[C@@H]1NC(=O)[C@H](C)NC(=O)[C@@H](NC(=O)CN)CSSC[C@@H]2NC(=O)CNC(=O)[C@H](C)NC(=O)[C@H](CC(C)C)NC(=O)[C@@H]3CSSC[C@@H](C(=O)NCC(=O)O)NC(=O)[C@H](Cc4ccccc4)NC(=O)CNC(=O)[C@H](CC(N)=O)NC(=O)[C@@H]4CCCN4C(=O)CNC(=O)[C@H](CSSC[C@H](NC(=O)[C@H](CCC(N)=O)NC(=O)[C@H](Cc4ccccc4)NC(=O)[C@H](CCSC)NC(=O)[C@H](Cc4c[nH]c5ccccc45)NC(=O)CNC(=O)[C@H](CCSC)NC(=O)[C@H](Cc4c[nH]cn4)NC(=O)[C@H](Cc4ccc(O)cc4)NC1=O)C(=O)N[C@@H](CCCCN)C(=O)N[C@@H](CCC(N)=O)C(=O)N[C@@H](CC(=O)O)C(=O)N[C@@H](CO)C(=O)N[C@@H](CC(=O)O)C(=O)N3)NC(=O)[C@H](C(C)C)NC2=O` [L-EET-7], at Ly6E-rat IgG Fc, the Kd was 22 nM.

For the compound `CC[C@H](C)[C@@H]1NC(=O)[C@H](Cc2ccccc2)NC(=O)[C@@H]2CCCN2C(=O)[C@H](CC(N)=O)NC(=O)[C@H](CC(=O)O)NC(=O)[C@H](CC(=O)O)NC(=O)[C@H](Cc2ccccc2)NC(=O)[C@@H](NC(=O)CN)CSSC[C@@H]2NC(=O)CNC(=O)[C@H](C)NC(=O)[C@H](CC(C)C)NC(=O)[C@@H]3CSSC[C@@H](C(=O)NCC(=O)O)NC(=O)[C@H](Cc4c[nH]c5ccccc45)NC(=O)[C@H]([C@@H](C)O)NC(=O)[C@H](CC(=O)O)NC(=O)[C@H](Cc4ccc(O)cc4)NC(=O)[C@H](Cc4c[nH]c5ccccc45)NC(=O)[C@H](CSSC[C@H](NC(=O)[C@H](C)NC1=O)C(=O)N[C@@H](CCCCN)C(=O)N[C@@H](CCC(N)=O)C(=O)N[C@@H](CC(=O)O)C(=O)N[C@@H](CO)C(=O)N[C@@H](CC(=O)O)C(=O)N3)NC(=O)[C@H](C(C)C)NC2=O` [P-EET-6] (H-GCFDDNPFIACKQDSDCLAGCVCWYDTWCG-OH; disulfide 2-21, 11-23, 17-29), the Kd on PDGF bb is above 6700 nM.

For the compound `CC[C@H](C)[C@H](NC(=O)[C@H](CC(C)C)NC(=O)[C@@H](N)CCCNC(=N)N)C(=O)N[C@@H](CCC(=O)O)C(=O)N[C@@H](CC(=O)O)C(=O)N[C@H](C(=O)N[C@H]1CSSC[C@@H](C(=O)N[C@@H](CC(C)C)C(=O)N[C@@H](Cc2c[nH]c3ccccc23)C(=O)N[C@@H](CCC(=O)O)C(=O)N[C@@H](CC(=O)O)C(=O)N[C@@H](CC(=O)O)C(=O)O)NC(=O)CNC(=O)[C@H](Cc2c[nH]c3ccccc23)NC(=O)[C@H](CCCNC(=N)N)NC(=O)[C@@H]2CCCN2C(=O)[C@H](CC(C)C)NC1=O)[C@@H](C)CC` [SA21] (H-RLIEDICLPRWGCLWEDD-OH; disulfide 7-13 (inferred); N-terminus and C-terminus assumed), the “inhibition of interaction between biotinylated human serum albumin and phage displaying Hs-CHR-3” value at human serum albumin was “partially disrupted”.

In turn, `CC[C@H](C)[C@@H]1NC(=O)[C@H](C(C)C)NC(=O)[C@H](Cc2c[nH]cn2)NC(=O)[C@H](Cc2ccc(O)cc2)NC(=O)[C@H](CCC(=O)O)NC(=O)[C@H](CCC(N)=O)NC(=O)[C@H](CC(=O)O)NC(=O)[C@H]([C@@H](C)O)NC(=O)[C@H](C)NC(=O)[C@H](Cc2c[nH]c3ccccc23)NC(=O)[C@H](C(C)C)NC(=O)[C@H](C)NC(=O)[C@H](CO)NC(=O)[C@@H]2CSSC[C@@H]3NC(=O)[C@H](CO)NC(=O)CNC(=O)[C@H]([C@@H](C)O)NC(=O)[C@H](CSSC[C@H](N)C(=O)N[C@@H](CCCCN)C(=O)NCC(=O)N[C@@H](CCCCN)C(=O)NCC(=O)N[C@@H](C)C(=O)N[C@@H](CCCCN)C(=O)N2)NC(=O)[C@H](CSSC[C@@H](C(=O)O)NC(=O)[C@H](CCCCN)NC(=O)CNC(=O)[C@H](CO)NC(=O)[C@H](CCCNC(=N)N)NC3=O)NC1=O` [V-CON-1] yielded a Kd at human VEGF-A above 4600 nM.

Regarding `CC[C@H](C)[C@@H]1NC(=O)[C@H]([C@@H](C)O)NC(=O)[C@H](Cc2ccccc2)NC(=O)[C@@H]2CCCN2C(=O)[C@H](Cc2ccccc2)NC(=O)[C@H](Cc2c[nH]c3ccccc23)NC(=O)[C@@H]2CCCN2C(=O)[C@H]([C@@H](C)O)NC(=O)[C@H](CCSC)NC(=O)[C@@H](NC(=O)CN)CSSC[C@@H]2NC(=O)CNC(=O)[C@H](C)NC(=O)[C@H](CC(C)C)NC(=O)[C@@H]3CSSC[C@@H](C(=O)NCC(=O)O)NC(=O)[C@H](Cc4ccccc4)NC(=O)CNC(=O)[C@H](CC(N)=O)NC(=O)[C@@H]4CCCN4C(=O)CNC(=O)[C@H](CSSC[C@H](NC(=O)[C@H](CC(N)=O)NC1=O)C(=O)N[C@@H](CCCCN)C(=O)N[C@@H](CCC(N)=O)C(=O)N[C@@H](CC(=O)O)C(=O)N[C@@H](CO)C(=O)N[C@@H](CC(=O)O)C(=O)N3)NC(=O)[C@H](C(C)C)NC2=O` [V-EET-3] (H-GCMTPWFPFTINCKQDSDCLAGCVCGPNGFCG-OH; disulfide 2-23, 13-25, 19-31), on human VEGF-A (Table S16, SPR against VEGF-A, averaged from at least three independent runs, estimated KD values due to possible non-specific binding, read-out: KD), the Kd was above 1500 nM.

Turning to `CSCC[C@@H]1NC(=O)[C@H](CC(C)C)NC(=O)[C@H](CCCNC(=N)N)NC(=O)[C@H](CO)NC(=O)[C@@H]2CSSC[C@@H]3NC(=O)[C@H](CO)NC(=O)CNC(=O)[C@H]([C@@H](C)O)NC(=O)[C@H](CSSC[C@H](N)C(=O)N[C@@H](CCCCN)C(=O)NCC(=O)N[C@@H](CCCCN)C(=O)NCC(=O)N[C@@H](C)C(=O)N[C@@H](CCCCN)C(=O)N2)NC(=O)[C@H](CSSC[C@@H](C(=O)O)NC(=O)[C@H](CCCCN)NC(=O)CNC(=O)[C@H](CO)NC(=O)[C@H](CCCNC(=N)N)NC3=O)NC(=O)[C@H](CC(=O)O)NC(=O)[C@H](Cc2ccc(O)cc2)NC1=O` [W T CON, reference compound], the Kd on human IgG Fc [1] is above 20000 nM.
